Test results: patent publication EP3750892A1, “NOVEL 5-CYCLOPROPYL-FURO[3,4-C]PYRIDINE-3,4(1H,5H)-DIONE 1,1' SUBSTITUTED DERIVATIVES AND THEIR USES” (Yerevan State University, priority 2019, dated 2020)
Values belong to the molecule of their own block, whether it stands above or below them.

Experiments:
Assay type in all cases: cell-based
human PBMC = test: Cytokine expression levels in culture supernatants of PBMC activated with R848; conditions: PBMC + R848 5 µg/mL, 24 h, supernatant
Description: (§1) The same experiment was performed but using different dilutions ranging from 1/8 to 1/64 of conditioned supernatants from activated PBMCs, instead of recombinant IFN-γ. Human peripheral blood mononuclear cells (PBMC) from one healthy donor were isolated by density centrifugation with Lymphoprep medium (StemCell Technologies) from leucocytes concentrates obtained when plateletpheresis was performed (Etablissement Français du Sang; Paris; France). To activate PBMCs, cells were treated for 24 h with the TLR7/8 ligand R848 at 5 µg/mL (Sigma Aldrich) and supernatants were harvested. R848 is known to induce expression of several cytokines, within which IFN-γ which is found at high levels in PBMC supernatants in comparison with type I IFNs (Table 4). Table 4. Cytokine expression levels in culture supernatants of human PBMC activated with R848.

[1] = test system: cellular response to IFN-α; test: ISRE-Luc reporter assay: amplification of cellular response to IFN-α; conditions: for EC50 / pEC50: ISRE-Luc reporter cells, dose-response 0.8 to 150 µM, luciferase after 24 h, pEC50<3.8 = inactive; for EC50 / amplification of cellular response to IFN-α / pEC50: IFN-α 150 IU/mL; for amplification of cellular response to IFN-α: HEK-293 ISRE-Luc (STING 37 cell line)
Description: Cells were cultured at 37°C and 5% CO2 in Dulbecco's modified Eagle's Medium (DMEM; Sigma-Aldrich) containing 10% fetal calf serum (FCS), penicillin and streptomycin. Experiments were performed on HEK-293 cells stably transfected with the ISRE-Luciferase reporter gene (ISRE-Luc), with or without NanoLuc as an additional reporter gene (Lucas-Hourani et al., 2013; Hayek et al., 2019).
Reporter cells were incubated with increasing concentrations of candidates DHODH inhibitors diluted in DMSO in the presence or not of recombinant IFN-α (150 IU/mL). Recombinant IFN-α was from Sigma-Aldrich or PBL Assay Science. Luciferase activity was quantified 24 h later.
To confirm that modulation of IFN-α is related to DHDOH inhibition by compounds of the invention, the same experiments were performed by adding either uridine (pyrimidine derivated nucleoside), dihydroorotate (DHO, the substrate od DHODH in pyrimidine de novo biosynthesis pathway) or orotate (the product of ubiquinone-mediated oxidation of DHO catalysed by DHODH) together with compound of the invention. uridine, orotate, and DHO are all from Sigma Aldrich.
Firefly luciferase expression in culture wells was measured using the Bright-Glo (Promega) or Britelite plus reagents (PerkinElmer), according to the manufacturer's recommendations. For each concentration, three independent experiments were performed.
Compounds were tested for their ability to boost cellular response to IFN-α using ISRE-Luc reporter cells.

[2] = test system: cellular response to IFN-γ; test: ISRE-Luc reporter assay: amplification of cellular response to type II IFN; conditions: HEK-293 ISRE-Luc, compound 80 µM, recombinant IFN-γ
Description: Reporter system, cell culture and luciferase assay are performed as exposed above. HEK-293 cells with the ISRE-Luc reporter gene were treated with DMSO or compounds of the invention in the absence or presence of recombinant IFN-γ (Figure 4A; Roussel Uclaf or Milteny Biotech, 150 IU/mL).
as §1

[3] = test system: de novo pyrimidine biosynthesis; test: Purine (G/A) and pyrimidine (C/U) quantification by HPLC-coupled spectrophotometry in HEK-293 cells; conditions: 24 h, 5, 10 or 20 µg/mL
Description: Cells were cultured at 37°C and 5% CO2 in Dulbecco's modified Eagle's Medium (DMEM; Sigma-Aldrich) containing 10% fetal calf serum (FCS), penicillin and streptomycin. Nucleoside/nucleotide quantification in HEK-293 cells was performed as previously described in by Lucas-Hourani et al. (2017). Briefly, cells were plated in 6-well plates at 1x10^6 cells per well and after 24 h, several concentrations of compounds of the invention (diluted in DMSO) or DMSO alone was added.
One day later, cells were washed with PBS and cellular pellets were deproteinized by adding an equal volume of 6% perchloric acid. After 10 min of incubation on ice and clearing of the extracts by centrifugation (13,000 rpm for 10 min at 4°C), supernatants were supplemented with bidistilled water (V/V) and neutralized by the addition of 2 M Na2CO3. Extracts were analyzed by HPLC onto a C18 Supelco 5-µm (250 by 4.6 mm) column (Sigma) at 45°C using a mobile phase delivered at a flow rate of 1 mL/min. Buffer A contained 10 mM tetrabutylammonium hydroxide, 10 mM KH2PO4, and 0.25% MeOH and was adjusted to pH 6.9 with 1 M HCl. Buffer B contained 5.6 mM tetrabutylammonium hydroxide, 50 mM KH2PO4, and 30% MeOH and was neutralized to pH 7.0 with 1 M NaOH. […] Products were monitored spectrophotometrically at 254 nm with a diode array detector (PDA) and quantified by integration of the peak absorbance area. […]

HEK-293 cells = test: Cell viability / proliferation assay (CellTiter-Glo); conditions: 24, 48 and 72 h of culture
Description: Cells were treated with DMSO or compounds of the invention at different concentrations, and the number of viable cells was determined using the CellTiter-Glo reagent after 24, 48 and 72 h of culture. Cellular viability was determined by quantification of ATP in culture wells using the CellTiter-Glo assay (Promega).
Two independent experiments were performed. Results were analyzed using one-way analysis of variance (ANOVA) with Bonferroni's post hoc test.

Molecule: CCOCc1nc2c(N)nc3ccccc3c2n1CC(C)(C)O [Compound R848]
GM-CSF (human PBMC): 0.043 ng/mL
IFN-α2 (human PBMC): 0.097 ng/mL
IFN-β (human PBMC): 0.015 ng/mL
IFN-γ (human PBMC): 4.2 ng/mL
IFN-λ1 (human PBMC): 0.016 ng/mL
IL-1β (human PBMC): 12 ng/mL
IL-6 (human PBMC): 65 ng/mL
IL-8 (human PBMC): 214 ng/mL
IL-10 (human PBMC): 0.283 ng/mL
IL-12p70 (human PBMC): 0.009 ng/mL
IP10 (human PBMC): 0.028 ng/mL
TNF-α (human PBMC): 11 ng/mL

EC50 [1]: 6.31 µM
Molecule: CC1(CCc2ccccc2)OC(=O)c2c1ccn(C1CC1)c2=O (stereo not shown) [Compound 4, 5-cyclopropyl-1-methyl-1-phenethylfuro[3,4-c]pyridine-3,4(1H,5H)-dione]

EC50 [1]: 25.1 µM
Molecule: CC1(c2ccccc2)OC(=O)c2c1ccn(C1CC1)c2=O (stereo not shown) [Compound 3, 5-cyclopropyl-1-methyl-1-phenylfuro[3,4-c]pyridine-3,4(1H,5H)-dione]
amplification of cellular response to IFN-α [1]: amplified

pEC50 [1]: 4.4
Molecule: 5'-cyclopropyl-3'H-spiro[cyclohexane-1,1'-furo[3,4-c]pyridine]-3',4(5'H)-dione [Compound 2]
amplification of cellular response to IFN-α [1]: amplified
reversal of amplification of response to IFN-α by uridine, orotate or DHO ([1]; compound 80 µM, uridine 125 µM, DHO 3 mM, orotate 3 mM): reversed by orotate but not DHO
Amplification of response to IFN type II [2]: Amplification of response to IFN type II
Pyrimidine (U and C) levels [3]: drop of pyrimidine cellular concentration
proliferation of HEK-293 cells (number of viable cells) (HEK-293 cells): prevent cell proliferation

pEC50 [1]: 4.3
Molecule: 5'-cyclopropyl-3'H-spiro[cyclopentane-1,1'-furo[3,4-c]pyridine]-3',4(5'H)-dione [Compound 1]
